Results published in a melting point compilation (Tetko et al.).

Row | SMILES | melting point [°C]
1 | O=C(O)C=C1CCCC1 | 61 to 63
2 | COc1cc2c(cc1OC)CC(=O)NCC2 | 192 to 194
3 | Nc1cc2c(cc1[N+](=O)[O-])OCCCO2 | 73 to 77
4 | CC1CC1C(N)=O (configuration not stated) | 93 to 95
5 | N=C(NN)c1cc(F)cc(F)c1 | 101 to 103
6 | NC(=O)C1CCCN1Cc1ccccc1N (configuration not stated) | 121 to 123
7 | Nc1nnc(Cc2ccc(F)cc2)o1 | 169 to 171
8 | O=C(CCl)N(Cc1cccs1)C1CCS(=O)(=O)C1 (configuration not stated) | < 17
9 | O=C1NC(=O)N2CCCC12 (configuration not stated) | 149 to 151
10 | O=S(=O)(Cl)c1csc2ccc(F)cc12 | 129 to 131
11 | O=C(O)c1cnn2c(-c3ccccc3)ccnc12 | 228 to 230
12 | Cc1n[nH]c(C)c1S(=O)(=O)Cl | 60 to 65
13 | O=Cc1cccc(Br)c1O | 51 to 55
14 | O=C(O)C=Cc1cccc(OC2CCCCC2)c1 | 96 to 98
15 | NC(=O)N1CC(O)CC1C(=O)O (configuration not stated) | 166 to 168
16 | O=C(CC(F)(F)F)c1ccc(Br)cc1 | 73 to 75
17 | NC1CCC(=O)NC1=O (configuration not stated) | 214 to 216
18 | CS(=O)(=O)N1CCC(N=C=O)CC1 | 84 to 86
19 | Oc1ccc(-c2noc(C3CC3)n2)cc1 | 149 to 151

Row | SMILES | melting point [°C]
20 | O=C(O)COc1ccc(C(=O)c2ccccc2)cc1 | 152 to 156
21 | Cc1cc(=O)[nH]c(-c2cccc(N)c2)n1 | 212 to 214
22 | Cc1nn2c(C=O)c(C(C)C)nc2s1 | 40 to 42
23 | O=C(O)c1cccc(S(=O)(=O)NCC2CCCO2)c1 (configuration not stated) | 157 to 161
24 | COc1ccc(C)cc1NC(=O)c1cc2ccccc2cc1O | 178 to 180
25 | O=C(O)C1CC1C(=O)N1CCN(c2ccccc2)CC1 (configuration not stated) | 155 to 157
26 | Cc1nnc(S)n1CC(=O)N(C)C | 260 to 262
27 | Cc1cc(-n2c(C)c[nH]c2=O)no1 | 134 to 136
28 | COC(=O)C1CCCc2[nH]ncc21 (configuration not stated) | 84 to 86
29 | CN1CCN(c2ccc(N)nc2)CC1 | 119 to 121
30 | Nc1ccc(N2CCCCC2)c(Cl)c1 | 53 to 55
31 | CN1CC(=O)N(Cc2ccc(C(N)=O)cc2N)C1=O | 187 to 189
32 | Cc1sc2nc(CCl)nc(Cl)c2c1C | 142 to 144
33 | CC(C)Cc1csc2nc(CC#N)[nH]c(=O)c12 | 218 to 220
34 | O=C(NCc1ccc(Cl)cc1)n1ccnc1 | 94 to 96
35 | COc1cccc(C=O)c1OC(F)F | 30 to 32
36 | O=C(O)c1cccc(S(=O)(=O)Nc2ccc(Br)cc2)c1 | 241 to 243
37 | O=c1[nH]c2ccc(NCc3ccccc3)cc2[nH]1 | 242 to 244
38 | CNc1cn[nH]c(=O)c1 | 279 to 281

Row | SMILES | melting point [°C]
39 | O=C(O)C1(c2ccc3c(c2)OCCO3)CCCC1 | 165 to 167
40 | O=C(O)Cc1csc(-c2cccc(C(F)(F)F)c2)n1 | 109 to 111
41 | Cc1ccc(N)c(OCc2ccccc2)c1 | 68 to 70
42 | Cc1cc(N)n(-c2cccc(C(F)(F)F)c2)n1 | 88 to 92
43 | O=S(=O)(O)c1nc2ccc(Cl)cc2[nH]1 | 329 to 331
44 | Clc1cc2ccccc2c(Cl)n1 | 100 to 102
45 | Nc1nonc1-c1ccccn1 | 124 to 126
46 | COc1ccc2[nH]cc(C3=CCNCC3)c2c1 | 181 to 183
47 | Nc1cc(Cl)cc(Br)c1OC(F)F | 86 to 88
48 | O=C(O)CNC(=O)c1ccncc1 | 230 to 232
49 | Cc1cc(NC(=O)CSCC(N)C(=O)O)no1 (configuration not stated) | 204 to 206
50 | COc1ccc2cc(-c3cc(C(=O)O)c4ccccc4n3)ccc2c1 | 258 to 260
51 | Nc1ccn(Cc2ncccn2)n1 | 100 to 102
52 | CCC(CC)c1nnc(N)s1 | 158 to 160
53 | OCCNc1ncnc2ccccc12 | 172 to 174
54 | CC1CC(C)CN(c2nnc(S)n2Cc2ccco2)C1 (configuration not stated) | 119 to 121
55 | O=C(O)Cc1cccc(OCc2ccccc2Cl)c1 | 64 to 66
56 | NNC(=O)Cn1ccc(C(F)(F)F)n1 | 157 to 159
57 | NCCNC(=O)c1ccc(O)cc1 | 191 to 193

Continued, values first:

Row | melting point [°C] | SMILES
58 | 84 to 86 | Cc1nn(C)c2ncc(N)cc12
59 | 166 to 168 | Nc1cc(F)c(Br)cc1[N+](=O)[O-]
60 | 183 to 185 | N#CCc1ccc(Oc2ccc(C(=O)O)cc2)cc1
61 | 110 to 112 | N#Cc1ccc(Oc2ccc(S(=O)(=O)Cl)cc2)cc1
62 | 158 to 160 | Cc1nnnn1C(Cc1cccc(F)c1)C(=O)O (configuration not stated)
63 | 45 to 47 | CC(=O)N(C)Cc1ccc(C(=O)CCl)cc1
64 | 107 to 109 | CC(=O)N1CCN(c2cc(C#N)ccn2)CC1
65 | 175 to 177 | CS(=O)(=O)c1ccc(NC(=O)OCC(F)(F)F)cc1
66 | 171 to 173 | Cc1nn(-c2ccc(F)cc2)c(C)c1CC(=O)O
67 | 161 to 163 | Cc1cc([N+](=O)[O-])cc(C)c1N
68 | 194 to 196 | Cc1nc2ccnn2c(C)c1C(=O)O
69 | 144 to 146 | COc1cc([N+](=O)[O-])ccc1NC(=O)CCCl
70 | 144 to 147 | O=C(O)c1cccc(S)c1
71 | 115 to 117 | NCC(O)c1ccc2ccccc2c1 (configuration not stated)
72 | 159 to 161 | CS(=O)(=O)Cc1ccc(N)cc1
73 | 139 to 141 | NC(=O)CNc1ccccc1
74 | 93 to 95 | CC(C)c1noc(-c2cc(Cl)ccc2N)n1
75 | 253 to 255 | CNC(=O)c1cncc(C=CC(=O)O)c1
76 | 188 to 190 | COC(=O)c1ccc(=O)[nH]n1
77 | 75 to 79 | COc1ccc(S(=O)(=O)Cl)c([N+](=O)[O-])c1
78 | 92 to 94 | N#CCC(=O)c1ccsc1
79 | 182 to 184 | CC(SC1=NS(=O)(=O)c2ccccc21)C(=O)O (configuration not stated)
80 | 201 to 203 | O=C(O)COc1ccc(C2SCCCS2)cc1

Row | melting point [°C] | SMILES
81 | 74 to 76 | N#Cc1ccnc(OCc2ccccc2)c1
82 | 147 to 149 | CC(C)(C)OC(=O)NC1CCN(C(=O)CC(F)(F)F)CC1
83 | 115 to 117 | COc1ccc(CN)cc1NC(C)=O
84 | 101 to 103 | COc1ccc([N+](=O)[O-])cc1CN
85 | 62 to 64 | CCOc1cc(Br)c([N+](=O)[O-])cc1OCC
86 | 170 to 174 | O=C(O)c1cc(Cl)ccn1
87 | 141 to 143 | CN(C(=O)c1ccccc1N)C1CCCCC1
88 | 281 to 283 | CCn1c(SCC(=O)O)nnc1-c1cccc(C)c1
89 | 168 to 170 | CC(C)(C)OC(=O)C(C#N)c1ccc([N+](=O)[O-])cn1 (configuration not stated)
90 | 158 to 160 | CC(C)(C)n1c(N)nc2ccccc21
91 | 193 to 195 | CN(C)C(=O)COc1cccc(C(=O)O)c1
92 | 155 to 159 | CC(C)OC(=O)c1cccc(-c2nn[nH]n2)c1
93 | 159 to 161 | COc1ccc(CCNC(N)=S)cc1OC
94 | 194 to 196 | NC(=O)NC(CC(=O)O)c1ccccc1 (configuration not stated)
95 | 189 to 191 | NS(=O)(=O)c1ccc(C(=O)O)c(F)c1
96 | 212 to 214 | O=C(O)C=Cc1ccc(SC(F)(F)F)cc1
97 | 134 to 136 | CCN(CC)S(=O)(=O)c1ccc(Oc2ccc(C=O)cc2OC)c([N+](=O)[O-])c1
98 | 179 to 181 | COc1ccc(C(=O)O)cc1OC(F)F
99 | 153 to 155 | C#Cc1cccc(NC(N)=O)c1
100 | 135 to 137 | Cc1c(NCC(C)(C)C)cccc1C(=O)O
101 | 47 to 49 | CCCOc1ccc(Br)cc1C=O
102 | 83 to 85 | Nc1ccc(S(=O)C(F)F)cc1 (configuration not stated)
